Test results reported in patent US20230331739A1, “INDOLO HEPTAMYL OXIME ANALOG CRYSTAL AS PARP INHIBITOR AND METHOD FOR PREPARING SAME” (CHIA TAI TIANQING PHARMACEUTICAL GROUP CO., LTD., priority 2020, published 2023).
Read-outs that look alike come from different tables or passages of the source.

Columns and labels:
[1] = Single-dose pharmacokinetic study in mice; assay type: in vivo, male C57BL/6 mice
Procedure: Objectives: To evaluate the pharmacokinetic behavior in male C57BL/6 mice and to determine the drug concentrations of the compound in the plasma, liver and cerebrospinal fluid after a single dose.
Procedures: Healthy adult male C57BL/6 mice were selected for intragastric administration. The candidate compound was mixed with an appropriate amount of 10% DMSO/90% (20% hydroxypropyl-@-cyclodextrin), vortexed and sonicated to prepare a 0.5 mg/mL clear solution for later use. After the mice were administered intravenously at 1 mg/kg and orally at 5 mg/kg, whole blood was collected at certain time points. Plasma was separated, and liver and cerebrospinal fluid were collected. After pretreatment of the samples, the drug concentration was measured by LC-MS/MS, and pharmacokinetic parameters were calculated using Phoenix WinNonlin software.

[2] = Preliminary stability examination at 60° C. and 75% humidity; assay type: physicochemical; details: 60° C. 75% RH
Procedure: 1. Preliminary Stability Examination • Examination conditions: The stability of crystalline form A and crystalline form B was simultaneously examined at 60° C. and 75% humidity.

[3] = system: MDA-MB-436 cells with BRCA1 mutation; experiment: Anti-proliferation study on MDA-MB-436 cells (CellTiter-Glo); assay type: cell-based; details: Homo sapiens, MDA-MB-436, 168 h; 7 days incubation
Procedure: Materials: test compounds; RPMI-1640 medium; fetal bovine serum; penicillin/streptomycin antibiotic; MDA-MB-436 cells; Envision Multimode Plate Reader (PerkinElmer). MDA-MB-436 cells were seeded in a white 96-well plate by adding 80 μL of cell suspension (containing 3000 MDA-MB-436 cells) to each well. The cell plate was incubated in a CO2 incubator overnight. The test compounds were serially 5-fold diluted to the 8th concentration with a multichannel pipette, i.e., from 2 mM to 26 nM, in duplicate. 78 μL of medium was added to an intermediate plate, and the serially diluted compound was transferred to the intermediate plate at 2 μL per well. After being mixed well, the mixture was transferred to the cell plate at 20 μL per well. […] Another cell plate was provided for reading signal values on the day of compound addition and these signal values were used as Max values in data analysis. Promega CellTiter-Glo was added to the cell plate at 25 μL per well and the luminescence signals were stabilized by incubation for 10 min at room temperature. Readings were taken using a PerkinElmer Envision Multimode Plate Reader. […]

[4] = Accelerated stability test at 40° C.±2° C. and 75±5% RH; assay type: physicochemical; details: 40° C. ± 2° C./75 ± 5% RH
Procedure: 2. Accelerated Test • Examination conditions: Samples of crystalline form A of the compound of formula (I) were packed into double-layer pharmaceutical low-density polyethylene bags. Each layer of the pharmaceutical low-density polyethylene bag was sealed, then the bags were put into aluminum foil bags, and the aluminum foil bags were heat-sealed. Accelerated test was conducted at 40° C.±2° C. and 75±5% RH.

With CNCc1ccc(-c2[nH]c3cc(F)cc4c3c2CCNC4=O)cc1 [Rucaparib, reference compound] the Maximum concentration ([1]; IV: 1 mg/kg PO: 5 mg/kg) was 24.8 nM, the AUC(0-t) ([1]; male, C57BL/6, mouse, plasma, IV 1 mg/kg, read-out: AUC0-last (intravenous injection)) was 0.255 µM·h and the half-life ([1]; male, C57BL/6, mouse, plasma, IV: 1 mg/kg PO: 5 mg/kg) was 1.78 h. It also gave an AUC(0-t) ([1]; male, C57BL/6, mouse, plasma, PO 5 mg/kg, read-out: AUC0-last (oral)) of 0.145 µM·h.

In the case of C[C@]1(c2ccc(-c3[nH]c4cc(F)cc5c4c3CONC5=O)cc2)CCCN1.Cl [Crystalline form B], the “Preliminary stability examination (content, %) Day 0” value [2] is reported as 99.09% and the “Preliminary stability examination (content, %) Day 10” value [2] is reported as 98.93%.

With C[C@]1(c2ccc(-c3[nH]c4cc(F)cc5c4c3CONC5=O)cc2)CCCN1.Cl [Crystalline form A] the IC50 [3] was 8.4 nM, the “Preliminary stability examination (content, %) Day 0” value [2] was 99.73% and the “Preliminary stability examination (content, %) Day 10” value [2] was 99.72%. For the same molecule, the Appearance ([4]; Initial values) was “Earthy yellow”, the Content ([4]; Initial values) was 98.0% and the Isomer ([4]; Initial values) was “Not detectable”. The Total impurities ([4]; Initial values) was 0.45%, the Water content ([4]; Initial values) was 2.07% and the Appearance ([4]; Month 1) was “Earthy yellow”. For the same molecule, the Content ([4]; Month 1) was 96.2%, the Isomer ([4]; Month 1) was “Not detectable” and the Total impurities ([4]; Month 1) was 0.75%. For the same molecule, the Water content ([4]; Month 1) was 2.50%, the Appearance ([4]; Month 2) was “Earthy yellow” and the Content ([4]; Month 2) was 96.9%. The Isomer ([4]; Month 2) was “Not detectable”, the Total impurities ([4]; Month 2) was 0.78% and the Water content ([4]; Month 2) was 2.26%. The Appearance ([4]; Month 3) was “Earthy yellow”, the Content ([4]; Month 3) was 96.9% and the Isomer ([4]; Month 3) was “Not detectable”. The Total impurities ([4]; Month 3) was 0.62%, the Water content ([4]; Month 3) was 1.89% and the Appearance ([4]; Month 6) was “Earthy yellow”. For the same molecule, the Content ([4]; Month 6) was 97.5%, the Isomer ([4]; Month 6) was “Not detectable” and the Total impurities ([4]; Month 6) was 0.93%. It also gave a Water content ([4]; Month 6) of 2.14%.
